{
  "source": "paper PMC11259170",
  "about": "“Small-molecule probe for IBD risk variant GPR65 I231L alters cytokine signaling networks through positive allosteric modulation” (Science Advances, 2024)",
  "key": {"hGPR65": {"molecular_target": "T1, hGPR65 (Homo sapiens, UniProt Q8IYL9)", "T1 construct": "expressed in transfected cells; host or cells: HeLa (ATCC CCL-2), lentiviral transduction, pLX317", "T1 sequence (Q8IYL9 whole entry)": "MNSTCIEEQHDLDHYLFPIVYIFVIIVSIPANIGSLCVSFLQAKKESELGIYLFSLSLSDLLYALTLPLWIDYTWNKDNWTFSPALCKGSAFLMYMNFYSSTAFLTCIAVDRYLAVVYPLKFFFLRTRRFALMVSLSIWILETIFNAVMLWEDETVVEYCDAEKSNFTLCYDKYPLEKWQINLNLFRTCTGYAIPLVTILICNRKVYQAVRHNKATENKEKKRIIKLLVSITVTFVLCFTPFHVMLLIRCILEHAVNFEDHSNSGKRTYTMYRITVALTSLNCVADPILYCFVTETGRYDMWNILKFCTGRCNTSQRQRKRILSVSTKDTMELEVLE", "assay": "cAMP detection (Lance Ultra), GPR65 KO HeLa reconstituted with hGPR65; 21K screen dose confirmation", "assay_type": "cell-based", "settings": "HeLa GPR65 KO + hGPR65, pH 7.1, 30 min, normalized to DMSO and 100 μM forskolin; read-out: WT EC50"}, "mGPR65": {"molecular_target": "T2, mGPR65 (Mus musculus, UniProt Q61038)", "T2 construct": "expressed in transfected cells; host or cells: HeLa (ATCC CCL-2), lentiviral transduction, pLX317", "T2 sequence (Q61038 whole entry)": "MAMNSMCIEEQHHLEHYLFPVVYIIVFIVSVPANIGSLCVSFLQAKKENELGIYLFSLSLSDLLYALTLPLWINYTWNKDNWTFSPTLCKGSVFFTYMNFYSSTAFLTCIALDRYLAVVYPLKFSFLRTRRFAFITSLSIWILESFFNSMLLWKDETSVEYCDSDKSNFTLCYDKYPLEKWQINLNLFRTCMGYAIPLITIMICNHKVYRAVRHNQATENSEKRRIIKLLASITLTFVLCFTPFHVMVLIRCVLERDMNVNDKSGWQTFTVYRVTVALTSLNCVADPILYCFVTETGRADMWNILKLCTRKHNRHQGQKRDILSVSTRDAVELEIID", "assay": "cAMP detection, GPR65 KO HeLa reconstituted with mGPR65", "assay_type": "cell-based", "settings": "0 to 50 μM, pH 7.2", "method": "The Lance Ultra cAMP Kit (PerkinElmer, TRF0264) was used for cAMP detection, and included the following reagents: ULight anti-cAMP antibody, Eu-cAMP tracer, 7.5% BSA Stabilizer solution, and cAMP detection buffer. Stimulation buffer was prepared as described by the kit manufacturer as follows: Hanks buffered saline solution (HBSS, Life Technologies, 14025-126) containing 0.5 mM IBMX (3-isobutyl-1-methylxanthine, Sigma-Aldrich, I7018) and buffered with 1 M Hepes (15630-080). […] HeLa cells were lifted using Versene and then suspended at 2.5 × 10^5 cells/ml in stimulation buffer. Cells were then plated at 20 μl per well (5000 cells per well) in white, opaque OptiPlate 384-well MicroPlates (PerkinElmer, 6007299) using a Thermo Fisher Scientific Combi liquid dispenser. […] Eu-cAMP tracer and Förster resonance energy transfer (FRET) emissions were then read using a PerkinElmer EnVision Multimode plate reader (ENVISION21040010), exciting each well at 320 nm [UV2 (TRF) 320 filter] and reading emissions at 615 nm (Europium 615 filter) and 665 nm (APC665 filter). […]"}},
  "data": [
    {"smiles": "CN1N=C(SCc2ccc(Cl)cc2Cl)Sc2c1cnn(C)c2=O", "note": "[BTB09089, reference compound]", "values": [
      {"measurement": "EC50", "setting": "hGPR65", "result": 6, "unit": "µM"},
      {"measurement": "cAMP response, BTB09089 compared with BRD2813", "setting": "mGPR65", "result": "more effective"}
    ]}
  ]
}
